The source of these data is patent publication US20250136552A1, “ANTAGONISTS OF CAV 2.3” (LARIO THERAPEUTICS LIMITED, priority 2021, published 2025).

Each structure is given as a SMILES string.

For the experiment, the target named is Cav2.3 (Homo sapiens, UniProt Q15878). Kind of experiment: Human Cav2.3 channel calcium-influx assay. Type of experiment: cell-based. Particulars: HEK-293 T-Rex/Kir2.1 cells with inducible Cav2.3e-β4-α2δ1; Fluo8 fluorescence; 8-point dose response from 30 μM; no pluronic acid; read-out: Cav2.3 (pIC50) (converted). As to the method: HEK-293 T-Rex cells were transfected with pcDNA3.1-Kir2.1 to generate a stable cell line. After antibiotic selection, the obtained stable pools were analysed using FLIPR^TETRA(membrane potential assay), and a limiting dilution was performed and a HEK-293 T-Rex/Kir2.1 clone was selected. The clone was transfected with pcDNA3.1-Cav2.3e and pBud-Cav-β4-α2δ1 to generate a stable cell line where the Cav2.3e expression is inducible. After antibiotic selection, functional clone pool analysis and two successive limiting dilutions, the final clone underwent a qPCR analysis and a biophysical and pharmacological validation using patch-clamp.
Sequence of Cav2.3 (Q15878 1-2270 isoform Q15878-3): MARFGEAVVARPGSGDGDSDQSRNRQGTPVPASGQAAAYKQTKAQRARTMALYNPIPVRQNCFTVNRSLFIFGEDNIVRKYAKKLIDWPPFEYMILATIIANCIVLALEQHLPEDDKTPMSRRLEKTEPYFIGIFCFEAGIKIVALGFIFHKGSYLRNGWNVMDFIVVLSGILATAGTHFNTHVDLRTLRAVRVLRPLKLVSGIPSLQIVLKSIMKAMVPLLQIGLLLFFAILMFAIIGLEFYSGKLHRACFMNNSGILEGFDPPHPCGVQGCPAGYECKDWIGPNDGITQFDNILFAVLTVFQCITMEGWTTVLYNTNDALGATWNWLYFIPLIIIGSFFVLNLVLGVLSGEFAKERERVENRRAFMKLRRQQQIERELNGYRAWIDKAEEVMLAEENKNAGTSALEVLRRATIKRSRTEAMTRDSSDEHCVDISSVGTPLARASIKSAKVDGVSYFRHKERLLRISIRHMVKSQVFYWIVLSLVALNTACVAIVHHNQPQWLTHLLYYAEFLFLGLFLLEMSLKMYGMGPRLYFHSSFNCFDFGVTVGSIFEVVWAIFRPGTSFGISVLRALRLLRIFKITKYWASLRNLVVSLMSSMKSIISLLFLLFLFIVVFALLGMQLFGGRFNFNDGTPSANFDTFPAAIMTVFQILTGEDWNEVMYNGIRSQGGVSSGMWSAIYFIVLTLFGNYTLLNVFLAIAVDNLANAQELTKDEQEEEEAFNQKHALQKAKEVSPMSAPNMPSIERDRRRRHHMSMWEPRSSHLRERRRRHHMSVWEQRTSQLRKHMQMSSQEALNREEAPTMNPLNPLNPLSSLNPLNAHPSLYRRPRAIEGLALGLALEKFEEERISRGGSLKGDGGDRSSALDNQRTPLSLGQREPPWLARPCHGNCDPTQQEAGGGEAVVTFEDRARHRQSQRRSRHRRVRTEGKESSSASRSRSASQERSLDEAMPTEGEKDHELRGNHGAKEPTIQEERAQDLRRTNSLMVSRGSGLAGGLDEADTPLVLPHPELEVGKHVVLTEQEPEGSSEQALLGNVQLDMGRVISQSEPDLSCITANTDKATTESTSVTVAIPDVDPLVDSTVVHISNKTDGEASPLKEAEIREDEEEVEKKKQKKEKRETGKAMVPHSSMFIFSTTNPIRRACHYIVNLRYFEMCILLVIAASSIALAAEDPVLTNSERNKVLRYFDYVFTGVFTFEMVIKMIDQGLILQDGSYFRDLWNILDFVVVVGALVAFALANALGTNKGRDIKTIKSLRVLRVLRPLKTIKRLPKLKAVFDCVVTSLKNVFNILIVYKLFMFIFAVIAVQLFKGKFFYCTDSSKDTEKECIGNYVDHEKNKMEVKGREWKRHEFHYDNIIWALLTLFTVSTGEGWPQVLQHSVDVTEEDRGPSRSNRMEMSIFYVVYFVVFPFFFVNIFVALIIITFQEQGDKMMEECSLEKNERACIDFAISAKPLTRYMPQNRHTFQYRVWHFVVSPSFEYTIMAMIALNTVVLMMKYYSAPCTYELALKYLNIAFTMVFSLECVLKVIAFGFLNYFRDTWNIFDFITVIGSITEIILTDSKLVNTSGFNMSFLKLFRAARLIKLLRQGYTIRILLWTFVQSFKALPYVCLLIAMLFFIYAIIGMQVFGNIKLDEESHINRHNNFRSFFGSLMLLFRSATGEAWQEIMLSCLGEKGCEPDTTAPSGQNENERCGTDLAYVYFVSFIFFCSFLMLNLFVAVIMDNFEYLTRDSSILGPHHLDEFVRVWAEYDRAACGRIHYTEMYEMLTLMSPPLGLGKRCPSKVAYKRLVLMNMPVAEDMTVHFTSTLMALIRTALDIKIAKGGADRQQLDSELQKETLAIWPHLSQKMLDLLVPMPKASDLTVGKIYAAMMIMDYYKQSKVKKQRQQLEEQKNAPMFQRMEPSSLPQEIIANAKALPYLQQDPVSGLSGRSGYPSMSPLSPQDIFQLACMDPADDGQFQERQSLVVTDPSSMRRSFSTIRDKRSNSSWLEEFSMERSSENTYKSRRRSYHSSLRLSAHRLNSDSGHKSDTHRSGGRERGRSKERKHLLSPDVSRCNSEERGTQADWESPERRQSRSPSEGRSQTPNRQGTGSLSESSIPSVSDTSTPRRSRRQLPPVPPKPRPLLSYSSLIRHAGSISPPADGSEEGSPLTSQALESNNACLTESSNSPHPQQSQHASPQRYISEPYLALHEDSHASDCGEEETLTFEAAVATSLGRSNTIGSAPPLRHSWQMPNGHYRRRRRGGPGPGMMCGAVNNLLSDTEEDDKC
A compound plate, containing 10 test compounds in eight-points dose response with n=4, was prepared. Test compounds dose response curves were prepared in automated fashion in 100% DMSO at CyBio Felix and starting from a stock solution in 100% DMSO; a defined volume was serially moved into destination wells pre-filled with the desired DMSO volume; stock solution concentration volumes were dependent on the final compounds concentrations to be tested and the final DMSO content used in the assay. For the assay test compounds dose response curves ranged from 30 μM and half log dilution with 0.3% final DMSO. In order to obtain the 8-points dose response curve all the concentrations were created by starting from a 10 mM DMSO stock solution and then moving 9.5 μL into a destination well pre-filled with 20.5 μL of 100% DMSO and repeating this step seven times. This initial step was done into 96 MTP plates, 10 compounds/plate. One 384 MTP was then reformatted to contain all the 10 compounds at 8 concentrations, quadruplicate data points. This so obtained 384 MTP compound plate served as source plate in a “mother to child” process with a CyBi®-Well dispenser in which 0.7 μL of compounds were moved into a destination plate pre-filled with 57.6 μL of Tyrode's buffer 0 mM K^+, thus obtaining 4× concentrated compounds solution. In columns 1-2 and 23-24 the control wells were added. Both “source” compound plate and “destination” compound plate were barcoded and a relationship between the two plates was thus generated.
The day before the experiment, cells were detached by gentle wash with DPBS, followed by 5 min incubation at 37° C. with Trypsin solution. Detached cells were diluted with OptiMEM+Doxycycline at 0.2 μg/mL, counted and plated in Poly-D-Lysine coated black/clear bottom (15.000 c/well in 20 μl/well) by the use of a MATRIX WellMate dispenser. Plates were placed into a humidified incubator at 37° C. with 5% CO2 until the experimental day. 24 h after seeding 10 μL/well of 1.5× Fluo8 NW dye solution prepared in Tyrode's buffer 0 mM K^+ were added on top of the seeding medium. Cell plates were incubated for 40-60 min at RT in the dark. We then Injected off-line 10 μL/well of test compounds and controls 4× concentrated in Tyrode's Buffer 0 mM K+ with the CyBi®-Well instrument. Cell plates were incubated 3 minutes at RT. Finally, we injected 20 μL/well of 3× concentrated activator solution (K20-Na130-Ca2 buffer: 20 mM KCl, 130 mM NaCl, 2 mM CaCl2, 10 mM HEPES, 10 mM Glucose, final concentrations, prepared starting from “K0-Na150-Ca2” and “K150-Na0-Ca2” buffers) at FDSS7000EX instrument and read emitted fluorescence for 130 seconds.
Data analysis was performed with Genedata Screener® software and reported compounds activity as % effect in relation to the normalization standards. The Kinetic Response Value (KRV) is calculated as follows:
KRV=Maximal fluorescence recorded from second 5 to second 130 minus baseline fluorescence, computed as average from second 1 to second 2, of the kinetic trace. The KRV was normalized versus Neutral Controls and Inhibitor Controls in order to obtain the Activity[%] for each well. […] Therefore, the compound activity values were scaled (based on the two references) to a common range (two-point normalization). […]
With `CC(C)C(=O)N1CCc2cc(S(=O)(=O)N(C)C3(c4ccc(F)cc4)COC3)ccc2C1` [Example 31, N-(3-(4-fluorophenyl)oxetan-3-yl)-2-isobutyryl-N-methyl-1,2,3,4-tetrahydroisoquinoline-6-sulfonamide], the IC50 was 9.12 µM.
To `CCN([C@@H](C)c1ccc(F)cc1)S(=O)(=O)c1cnc2c(c1)CCN(C(=O)C1CC1)C2` [Example 32, (S)-7-(cyclopropanecarbonyl)-N-ethyl-N-(1-(4-fluorophenyl)ethyl)-5,6,7,8-tetrahydro-1,7-naphthyridine-3-sulfonamide] belongs 2.29 µM.
In the case of `CCN([C@@H](C)c1ccc(F)cc1)S(=O)(=O)c1ccc2c(n1)CCN(C(=O)C1CC1)C2` [Example 33, (S)-6-(cyclopropanecarbonyl)-N-ethyl-N-(1-(4-fluorophenyl)ethyl)-5,6,7,8-tetrahydro-1,6-naphthyridine-2-sulfonamide], the IC50 is 3.63 µM.
To `CCN([C@@H](C)c1ccc(F)cc1)S(=O)(=O)c1cc2c(cn1)CN(C(=O)C1CC1)CC2` [Example 34, (S)-7-(cyclopropanecarbonyl)-N-ethyl-N-(1-(4-fluorophenyl)ethyl)-5,6,7,8-tetrahydro-2,7-naphthyridine-3-sulfonamide] belongs 3.02 µM.
To `CC(C)C(=O)N1CCCc2cc(S(=O)(=O)N(C)[C@@H](C)c3ccccc3)ccc2C1` [Example 35, (S)-2-Isobutyryl-N-methyl-N-(1-phenylethyl)-2,3,4,5-tetrahydro-1H-benzo[c]azepine-7-sulfonamide] belongs 3.16 µM; to `CC(C)C(=O)N1CCc2ccc(S(=O)(=O)N(C)[C@@H](C)c3ccccc3)cc2CC1` [Example 36, (S)-3-isobutyryl-N-methyl-N-(1-phenylethyl)-2,3,4,5-tetrahydro-1H-benzo[d]azepine-7-sulfonamide], 1.95 µM; to `CC(C)N1CCc2cc(S(=O)(=O)N(C)[C@@H](C)c3ccccc3)ccc2C1=O` [Example 37, (S)-2-isopropyl-N-methyl-1-oxo-N-(1-phenylethyl)-1,2,3,4-tetrahydroisoquinoline-6-sulfonamide], 6.46 µM.
As for `C[C@@H](c1ccccc1)N(C)S(=O)(=O)c1ccc2c(c1)CCN(C)C2=O` [Example 38, (S)-N,2-dimethyl-1-oxo-N-(1-phenylethyl)-1,2,3,4-tetrahydroisoquinoline-6-sulfonamide], the figure is 6.61 µM; as for `CC(C)N1Cc2ccc(S(=O)(=O)N(C)[C@@H](C)c3ccccc3)cc2CC1=O` [Example 39, (S)-2-isopropyl-N-methyl-3-oxo-N-(1-phenylethyl)-1,2,3,4-tetrahydroisoquinoline-6-sulfonamide], 11.7 µM.
With `CC(C)C(=O)N1Cc2ccc(S(=O)(=O)N(C)[C@@H](C)c3ccccc3)cc2C1` [Example 40, (S)-2-isobutyryl-N-methyl-N-(1-phenylethyl)isoindoline-5-sulfonamide], the IC50 is 2.88 µM.
As for `CCN([C@H](c1ccc(F)cc1)C(F)(F)F)S(=O)(=O)c1ccc2c(c1)CN(C(=O)C(C)(C)F)CC2` [Example 41, (R)-N-ethyl-2-(2-fluoro-2-methylpropanoyl)-N-(2,2,2-trifluoro-1-(4-fluorophenyl)ethyl)-1,2,3,4-tetrahydroisoquinoline-7-sulfonamide], the figure is 0.891 µM.
To `CCN([C@@H](c1ccc(F)cc1)C(F)(F)F)S(=O)(=O)c1ccc2c(c1)CN(C(=O)C(C)(C)F)CC2` [Example 42, (S)-N-ethyl-2-(2-fluoro-2-methylpropanoyl)-N-(2,2,2-trifluoro-1-(4-fluorophenyl)ethyl)-1,2,3,4-tetrahydroisoquinoline-7-sulfonamide] belongs 2.63 µM; to `CCN(C(c1ccc(F)cc1)C(F)(F)F)S(=O)(=O)c1ccc2c(c1)CN(C(=O)C1CCOCC1)CC2` (centres unmarked) [Example 43, N-ethyl-2-(tetrahydro-2H-pyran-4-carbonyl)-N-(2,2,2-trifluoro-1-(4-fluorophenyl)ethyl)-1,2,3,4-tetrahydroisoquinoline-7-sulfonamide], 0.589 µM; to `CCN(C(c1ccc(F)cc1)C(F)(F)F)S(=O)(=O)c1ccc2c(c1)CN(C(=O)C1COC1)CC2` (centres unmarked) [Example 44, N-ethyl-2-(oxetane-3-carbonyl)-N-(2,2,2-trifluoro-1-(4-fluorophenyl)ethyl)-1,2,3,4-tetrahydroisoquinoline-7-sulfonamide], 2.04 µM.
As for `CCN(C(c1ccc(F)cc1)C(F)(F)F)S(=O)(=O)c1ccc2c(c1)CN(C1COC1)CC2` (centres unmarked) [Example 45, N-ethyl-2-(oxetan-3-yl)-N-(2,2,2-trifluoro-1-(4-fluorophenyl)ethyl)-1,2,3,4-tetrahydroisoquinoline-7-sulfonamide], the figure is 0.525 µM.
For `CCN(C(c1ccc(F)cc1)C(F)(F)F)S(=O)(=O)c1ccc2c(c1)CN(C(=O)C1CC1)CC2` (centres unmarked) [Example 46, 2-(Cyclopropanecarbonyl)-N-ethyl-N-(2,2,2-trifluoro-1-(4-fluorophenyl)ethyl)-1,2,3,4-tetrahydroisoquinoline-7-sulfonamide], the IC50 was 0.316 µM.
As for `CCN([C@@H](c1ccc(F)cc1)C(F)(F)F)S(=O)(=O)c1ccc2c(c1)CN(C(=O)C1CC1)CC2` [Example 47, (S)-2-(Cyclopropanecarbonyl)-N-ethyl-N-(2,2,2-trifluoro-1-(4-fluorophenyl)ethyl)-1,2,3,4-tetrahydroisoquinoline-7-sulfonamide], the figure is 4.57 µM; as for `CCN([C@H](c1ccc(F)cc1)C(F)(F)F)S(=O)(=O)c1ccc2c(c1)CN(C(=O)C1CC1)CC2` [Example 48, (R)-2-(Cyclopropanecarbonyl)-N-ethyl-N-(2,2,2-trifluoro-1-(4-fluorophenyl)ethyl)-1,2,3,4-tetrahydroisoquinoline-7-sulfonamide], 0.427 µM; as for `CC(C)C(=O)N1CCc2ccc(S(=O)(=O)N(CCF)[C@@H](c3ccc(F)cc3)C(F)(F)F)cc2C1` [Example 50, (S)-N-(2-fluoroethyl)-2-isobutyryl-N-(2,2,2-trifluoro-1-(4-fluorophenyl)ethyl)-1,2,3,4-tetrahydroisoquinoline-7-sulfonamide], 3.31 µM.
To `CC(C)C(=O)N1CCc2ccc(S(=O)(=O)N(CCF)[C@H](c3ccc(F)cc3)C(F)(F)F)cc2C1` [Example 51, (R)-N-(2-fluoroethyl)-2-isobutyryl-N-(2,2,2-trifluoro-1-(4-fluorophenyl)ethyl)-1,2,3,4-tetrahydroisoquinoline-7-sulfonamide] belongs 0.417 µM.
